# Results published in patent US10273290B2, “Hydrocarbon double-stapled stabilized HIV-1 GP41 heptad repeat domain peptides” (DANA-FARBER CANCER INSTITUTE, INC., priority 2009, dated 2019).
# Bridge positions count the residues as written; N and C are the ends. Square brackets hold non-standard residues; d marks the D form. Peptide text beside a SMILES is read from it. S5 = C=CCCC[C@](C)(N)C(=O)O; Nle = CCCC[C@H](N)C(=O)O
# How the values were obtained:
# [1] = Circular dichroism, α-helical content; assay type: physicochemical; details: comparative CD spectra, 20-mer residues 626-645
# Outline: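 Far-UV CD spectra recorded at 20° C, 190-260 nm, 0.1 cm path, 10 accumulations. Percent α-helicity from mean residue ellipticity at 222 nm: 100×[θ]222/max[θ]222, with max[θ]222=−40,000×[1−(2.5/number of residues)]. Secondary-structure fractions also estimated by CDNN curve-fitting.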
# HIV syncytia formation = experiment: HIV syncytial formation assay; assay type: cell-based, HIV-1
# Description: Functional assays can be used to evaluate the activity of the antibodies produced. In culture, multinucleated giant cells or “syncytia” form as a result of direct cell-cell fusion between HIV-1-infected and uninfected CD4-positive cells. In the syncytia formation assay, an indicator cell line expressing the CD4 receptor, and a fusogenic cell line that lacks the CD4 receptor but contains HIV-1 proteins on the surface, fuse to generate 70-100 multinucleated giant cells in culture within 48 h. Syncytia are then counted using an inverted microscope. The ability of structured gp41 peptides or antibodies targeted thereto to inhibit syncytia formation in a dose-responsive fashion is used as a functional measure of fusion inhibition, for which IC50s can be determined and compared with peptides T20 and T649, or established neutralization antibodies (Brenner, T. J., et al. The Lancet, 1991. 337(8748): p. 1001-1005; Madani, N., et al., Journal of Virology, 2007. 81(2): p. 532-538).
# The truncated Stabilized Alpha Helix (SAH)-gp41 compound, SAH-gp41(626-645)(A), was successfully synthesized in high yield.
# HIV-1 HXBc2 = experiment: HIV infectivity assay, HXBc2 strain; assay type: cell-based; details: compared to T20
# Text: Also the direct inhibitory activity of modified polypeptides and the antibodies targeted thereto can be quantified based upon their capacity to directly block HIV infection of CD4-positive and CCR5-expressing canine thymus cells. Recombinant HIV-1 viruses (eg. HXBc2, YU2, and additional strains available through the NIH AIDS Research and Reference Reagent Program) expressing firefly luciferase and containing the indicated envelope glycoproteins can be used to infect Cf2Th-CD4-CCR5/CXCR4 cells in the presence of serially diluted modified HIV-1 gp41 polypeptides or antibodies targeted thereto After 48 hours, the cells are lysed and luciferase activity is quantified (Si, Z. H., M. Cayabyab, and J. Sodroski, Journal of Virology, 2001. 75(9): p. 4208-4218 Si, Z. H., et al., PNAS, 2004. 101(14): p. 5036-5041). The identical experiment is performed with the amphotropic murine leukemia virus (AMLV), to monitor for any nonspecific effects of the modified polypeptides or antibodies. Similar control assays may be performed with unmodified or non-HIV polypeptides of the invention or control antibodies and are known in the art. […]
smiles,measurement,setting,value
CCCC[C@H](NC(C)=O)C(=O)N[C@H](C(=O)N[C@@H](Cc1c[nH]c2ccccc12)C(=O)N[C@@]1(C)CCCC=CCCC[C@@](C)(C(=O)N[C@@H](CCC(=O)O)C(=O)N[C@H](C(=O)N[C@@H](CC(N)=O)C(=O)N[C@@H](CC(N)=O)C(=O)N[C@@H](Cc2ccc(O)cc2)C(=O)N[C@H](C(=O)N[C@@H](CO)C(=O)N[C@@H](CC(C)C)C(=O)N[C@H](C(=O)N[C@@H](Cc2c[nH]cn2)C(=O)N[C@@H](CO)C(=O)N[C@@H](CC(C)C)C(N)=O)[C@@H](C)CC)[C@@H](C)O)[C@@H](C)CC)NC(=O)[C@H](CC(=O)O)NC(=O)[C@H](Cc2c[nH]c3ccccc23)NC(=O)[C@H](CCC(=O)O)NC1=O)[C@@H](C)O [SAH-gp41(626-645)(A)] (Ac-[Nle]TW[S5]EWD[S5]EINNYTSLIHSL-NH2; staple 4-8; N-terminus assumed),α-helical content,[1],48%
same,"inhibitory activity in syncytial formation assay, in words",HIV syncytia formation,markedly enhanced inhibitory activity
same,"anti-HXBc2 activity, in words",HIV-1 HXBc2,significant anti-HXBc2 activity
